The inhibition is the relative decrease from the control value, in per cent. The term cell viability denotes a read-out of living cells in per cent, often relative to untreated cells. What is called IC50 is the concentration needed to halve the response being measured.

Where two headings read alike, the source gives them in different places.

From patent publication US10300000B2, “Inhibition of melanogenesis by chemically modified curcumins” (The Research Foundation for The State University of New York, priority 2016, dated 2019) come the findings set out here.

The subject of series [1] is intracellular ROS in B16F10 cells. Kind of series: Intracellular ROS assay (H2DCFDA) in B16F10 cells. The format is cell-based, mouse. The note with it: 48 hours. The method, then: Intracellular ROS generation was quantified using 2′,7′-dichlorodihydrofluorescein diacetate (H2DCFDA), a non-fluorescent dye which is trapped intracellularly by cleavage by intracellular esterases after reaction with reactive oxygen species (ROS); only the product, DCF, is fluorescent. For measuring intracellular ROS, B16F10 cells were seeded in 24 well plates at 4×10^4 cells/well. After 24 hours, media was aspirated and PC, THC and CMCs were added to the wells at different concentrations and further incubated for 48 hours. At the end of the incubations, the media was aspirated and cells were washed with PBS. DCFDA (Molecular Probes) was dissolved in DMSO to make 10 mM stock. DCFDA dye working stock (50 μM) was prepared by diluting the stock in DMEM (serum-free, phenol-red free and sodium pyruvate free) media and added to cells and further incubated for 45 minutes at 37° C. The cells were then washed with DPBS and fluorescence was read in bottom read mode, using a fluorescence microplate reader (Gemini EM Spectramax, Molecular Devices) set to excitation and emission wavelengths of 485 nm and 535 nm, respectively. Data was expressed as relative fluorescence % of treated vs. control.

The subject of series [2] is HEM-DP cells. Kind of series: MTS cytotoxicity test with human epidermal melanocytes. The format is cell-based. The note with it: 5-25 μM, 48 hours. How it is done: For screening cytotoxicity of PC, THC and CMCs during 48 hours incubation on HEM-DP cells, we conducted MTS cytotoxicity assay. […] MTS reagent was added and incubated for 90 minutes and absorbance was read at 490 nm. The results are expressed as % relative to control.
On the technique in general: Tetrazolium assays rely on reduction of a dye to a coloured formazan, in cell work by metabolically active cells.

Series [3] concerns the target T1, cellular tyrosinase in HEM-DP cells (Homo sapiens, UniProt P14679).
T1 construct: endogenous in cells; host or cells: HEM-DP (primary human epidermal melanocytes, darkly pigmented donor)
T1 sequence (P14679 19-529): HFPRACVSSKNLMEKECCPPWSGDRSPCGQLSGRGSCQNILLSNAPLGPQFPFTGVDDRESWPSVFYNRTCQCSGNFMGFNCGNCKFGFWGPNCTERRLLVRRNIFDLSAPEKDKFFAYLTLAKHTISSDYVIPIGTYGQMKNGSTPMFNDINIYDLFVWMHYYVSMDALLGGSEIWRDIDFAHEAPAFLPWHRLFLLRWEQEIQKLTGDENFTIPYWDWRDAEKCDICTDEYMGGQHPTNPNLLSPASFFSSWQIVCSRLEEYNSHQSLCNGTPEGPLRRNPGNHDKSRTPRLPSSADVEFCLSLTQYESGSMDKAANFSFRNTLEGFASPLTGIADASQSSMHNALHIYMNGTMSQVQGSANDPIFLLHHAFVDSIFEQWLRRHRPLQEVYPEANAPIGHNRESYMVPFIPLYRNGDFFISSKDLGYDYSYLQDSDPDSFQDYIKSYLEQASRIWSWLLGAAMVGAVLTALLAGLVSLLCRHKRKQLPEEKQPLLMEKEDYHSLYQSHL
Kind of series: Intracellular tyrosinase activity in human melanocytes. The format is cell-based. As to conditions: 48 hours. How it is done:
We quantitated the cellular tyrosinase activity of human melanocytes based on established methods. Briefly, human epidermal melanocytes from a darkly pigmented donor (HEM-DP) were cultured in 12-well tissue culture plates at density of 1.5×10^5 cells/well. After 48 hrs. media was changed and test compounds were added, and further incubated for 48 hrs. At the end of treatments, cells were trypsinized and cell pellets were washed in PBS and lysed with lysis buffer under ice for 30 minutes and then centrifuged to remove cellular debris. 50 μl of lysates were then aliquoted in 96-well microplate and 150 μl of freshly prepared 3 mM L-DOPA was added. The absorbance was then measured kinetically at 475 nm every 30 seconds for 30 minutes at 30° C. using microplate reader (Versamax®). The % inhibition of tyrosinase activity was calculated by determining melanin formation rates from the linear range of the slopes of melanin formation over time for the different samples and calculating % inhibition from the measured velocities of melanin formation.

Series [4] has as its system αMSH-stimulated B16F10 cells. Kind of series: Melanin content in αMSH-stimulated B16F10 cells. As to conditions: αMSH-stimulated B16F10, 48 hours. Further details: dose or concentration left out as unconfirmed. The format is cell-based, mouse. The method, then:
B16F10 cells were seeded at 1×10^5 cells/well in 12-well plates and incubated for 24 hours. The test compounds were then added in presence or absence of αMSH (100 nM), and further incubated for another 48 hours. For evaluation of melanin content, cells were trypsinized, washed in PBS and then 250 μL of 1N NaOH was added and heated to 70° C. to solubilize melanin. The aliquots were then transferred to a 96-well plate and absorbance was read at 475 nm using microplate reader. The absorbance of melanin was normalized by total protein contents and reported as % of control.

For series [5], the system named is HEM-DP cells. Kind of series: Melanin content quantification in human epidermal melanocytes. The format is cell-based. As to conditions: 48 hours. How it is done:
Primary cultures of human epidermal melanocytes from a darkly pigmented donor were seeded at 2.2×10^5 cells/well in 1.5 ml media in 12-well plates and incubated for 48 hours. The test compounds were added to cultures and controls were treated with 0.16% DMSO, and further incubated for another 48 hours. For evaluation of melanin content, cells in the wells were trypsinized and cell pellets were washed in PBS. After aspiration, 250 μL of 1N NaOH was added and heated to 70° C. to solubilize melanin. The aliquots were then transferred to a 96-well plate and absorbance was read at 475 nm using microplate reader. A portion of the lysate was used to evaluate total protein content using […] bincinchonic acid (BCA) assay (Pierce BCA kit, Thermo Scientific). The absorbance of melanin was normalized to the total protein content for each lysate and reported as % of control.

Series [6] deals with normal human dermal fibroblasts (NHDF). Description: MTS cytotoxicity test with human dermal fibroblasts. The note with it: 48 hours.
Experimental: Briefly 5×10^3 cells/well were plated in 96 wells and compounds added for 48 hours. MTS assay was then conducted and plate incubated for 1 hour and then 100 μl of supernatants were aliquoted into 96 well plates and absorbance read at 490 nm using Versamax microplate reader.
The next series has as its system MITF. Kind of series: MITF protein levels by cell-based ELISA in B16F10 cells. As to conditions: B16F10, 10 μM, 48 hours. Details: species or system mouse. The method, then: MITF is the master regulator of melanogenesis and a known transcription factor for tyrosinase gene. The effects of PC and CMCs on micropthalmia transcription factor (MITF) proteins levels were assayed using a cell-based ELISA (LifeSpan Biosciences, Seattle). Briefly, B16F10 cells were cultured in a 96-well plate at 1×10^4 cells/well for 24 hours and then media was replaced with fresh media containing compounds in 0.1% DMSO for further 48 hours. The cells were then fixed and subsequent steps were conducted based on manufacturer instructions. The absorbance of MITF expression levels were normalized by absorbance of crystal violet stain (0.05%) and data was reported as % of control.
On the technique in general: An ELISA detects its analyte on a solid surface through an enzyme-linked reagent.

For the next series, the system named is HaCaT cells. The note with it: human, 48 h, 10 μM.
Series [7] can be described thus: Copper chelating activity assay (pyrocatechol violet). The format is physicochemical. The note with it: PV dye method. How it is done:
Metal ion chelation activity can be detected by pyrocatechol violet indicator assay which is similar to that reported in other studies with some modifications [Baek, S-H. et al. 2015]. Briefly, 100 μl of sample containing different concentrations of solutes were mixed with 50 mM sodium acetate buffer (pH 6.0) in a 96 well plate. Control group consisted of buffer only; KA at 500 μM was used as a positive control. Copper sulfate (2 mM; 10 μl) was added to the samples and incubated for 10 minutes. 10 μl of 2 mM pyrocatechol violet was then added and the plate was further incubated for 20 minutes. The absorbance was read at 632 nm using a microplate reader (Versamax). Lower absorbance compared to control was indicative of copper chelation.

A further series has as its system B16F10 cells. Kind of series: Melanin content quantification in B16F10 cells. The format is cell-based, mouse. The note with it: Mus musculus, B16-F10. How it is done: B16F10 cells were seeded at 1×10^5 cells/well in 1.5 ml media in 12-well plates and incubated for 24 hours. […] For quantification of melanin content, cells were trypsinized and cell pellets were washed in PBS. Cell pellets were also visually observed for lightening of the intracellular pigment. After aspiration, 250 μL of 1N NaOH was added and heated to 70° C. to solubilize melanin. The aliquots were then transferred to a 96-well plate and absorbance was read at 475 nm using a microplate reader. A portion of the lysate was used to evaluate total protein content using BCA assay. The melanin absorbance was normalized by total protein content and expressed as % of control.

The test system of series [8] is B16F10 mouse melanoma cells. The format is cell-based. The note with it: for cell viability: mouse, 48 h. The method, then: In order to test the four CMCs (CMC2.14, CMC2.24, CMC2.5 and CMC2.23) alongside PC and THC, for their effects on melanin content, we first screened their nontoxic concentrations using MTS cytotoxicity (Promega CellTiter Aqueous One) assay. MTS is a tetrazolium salt which is reduced to purple colored formazan upon reaction with mitochondrial dehydrogenases. Briefly, B16F10 cells were seeded at 4×10^3 cells/well in 96-well plates for 24 hrs. […] Controls were treated with 0.16% DMSO. At the end of 48 hours, medium was aspirated and replaced by 100 μl of fresh media. MTS (20 μl) was added and incubated for 40 minutes and absorbance read at 490 nm using a Versamax® microplate reader. Cell viability was calculated from the absorbance values relative to control groups and expressed in %.

Experimental for HaCaT cells: Briefly, 2×10^4 cells/well were seeded in 96-well plates and after 24 hours, the compounds at concentrations of 5-25 μM were added to the wells and incubated for 48 hours. Absorbance was read after 1 hour of incubation of plates and results were expressed as % of control.

For `COc1cc(CCC(=O)CC(=O)CCc2ccc(O)c(OC)c2)ccc1O` [THC, Tetrahydrocurcumin], the “reduction of intracellular ROS” value in [1] (B16F10, 5 μM) turned out to be 24%. The “cytotoxicity” value in the series on HEM-DP cells [2] was “nontoxic”. In [3] (25 μM), this compound showed an inhibition at 25 µM of 24%.

The compound `O=c1cc(CO)occ1O` [KA, kojic acid, reference compound] came in with a reduction of melanin in series [4] of 20%. In addition, the “reduction in melanin content” value in the series on HEM-DP cells [5] (1 mM) came to 10%.

On to `COc1cc(/C=C/C(=O)CC(=O)/C=C/c2ccc(O)c(OC)c2)ccc1O` [PC, Curcumin], for which the cell viability in [6] (10 μM, MTS) turned out to be 71.9%; in the series on HaCaT cells, 90.12%; in series [8] (20 μM), 24.44%; in [8] (25 μM), 16.55%. In [6] (range tested 5-25 μM), the “toxicity” value is “significantly toxic”. Moreover, the “inhibition of MITF protein levels” value in the series with MITF is listed as no more than 30%. Also, the “copper chelating activity” value in series [7] is on record as “did not show any effect”. Moreover, at 10 µM the inhibition in the series on B16F10 cells (B16F10, 10 μM, 48 hours) was 32.1%. The IC50 with B16F10 cells (B16F10 cells exposed for 48 hours, non-linear curve fitting, read-out: IC50-Melanin Inhibition) turned out to be 20.8 µM. Also, the “reduction of intracellular ROS” value in series [1] (B16F10, 10 μM) worked out at 24%. The “effect on melanin content (words)” value in the series with HEM-DP cells [5] (nontoxic concentrations tested (PC 5 and 10 μM)) was “did not show any significant difference”. Further, the “cytotoxicity, overall ranking” value in series [8] is “most cytotoxic”. In addition, the “increase of cell proliferation” value in series [8] (B16F10, 5 μM, 48 hours, MTS) is given as 13%. Besides, the “inhibition of cellular tyrosinase activity” value in series [3] (5 μM) and in series [3] (10 μM) was “significantly (p<0.01) inhibited” in each case.
